Laboratory results taken from PubChem BioAssay (NCI).
“And” between values parts separate entries of the source, which are not always exact repeats. Identical values can stand only once.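 Step 1: Grow cells in 96-well plates. Step 2: Expose to compound for 48 hours at 5 concentrations. Step 3: Interpolate endpoints linearly; if unreached, use highest concentration. GI50 is the concentration that inhibits growth by half. The concentration for full growth arrest is given as TGI.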

How the values were obtained:
Assay in all cases: NCI-60 cell line screen, 48 h
SR leukemia = test system: SR leukemia
SNB-75 CNS = test system: SNB-75 CNS
MALME-3M melanoma = test system: MALME-3M melanoma
SK-MEL-2 melanoma = test system: SK-MEL-2 melanoma
OVCAR-3 ovarian = test system: OVCAR-3 ovarian
HS 578T breast = test system: HS 578T breast
NCI/ADR-RES ovarian = test system: NCI/ADR-RES ovarian
HCC-2998 colon = test system: HCC-2998 colon
SF-268 CNS = test system: SF-268 CNS
SN12C renal = test system: SN12C renal

| SMILES | GI50 (SR leukemia) | TGI (SR leukemia) | GI50 (SNB-75 CNS) | TGI (SNB-75 CNS) | GI50 (MALME-3M melanoma) | TGI (MALME-3M melanoma) | GI50 (SK-MEL-2 melanoma) | TGI (SK-MEL-2 melanoma) | GI50 (OVCAR-3 ovarian) | TGI (OVCAR-3 ovarian) | GI50 (HS 578T breast) | TGI (HS 578T breast) | GI50 (NCI/ADR-RES ovarian) | TGI (NCI/ADR-RES ovarian) | GI50 (HCC-2998 colon) | TGI (HCC-2998 colon) | GI50 (SF-268 CNS) | TGI (SF-268 CNS) | GI50 (SN12C renal) | TGI (SN12C renal) |
| --- | --- | --- | --- | --- | --- | --- | --- | --- | --- | --- | --- | --- | --- | --- | --- | --- | --- | --- | --- | --- |
| Oc1cc(N2CC2)c(O)cc1N1CC1 | 0.159 µM | 4.03 µM | 1.14 µM | 2.6 µM | 0.217 µM | 0.55 µM | 1.46 µM | 4.55 µM | 0.839 µM | 4.46 µM | 2.33 µM | > 22.9 µM | 0.961 µM | 7.55 µM | 1.49 µM | 2.98 µM | 0.585 µM | 7.97 µM | 0.586 µM | 5.07 µM |
| CC(=O)OCC12CN(C#N)C3C4COC(CC41)C1(C(=O)N(C)c4ccccc41)C32 (stereo unspecified) |  | 68.3 µM |  | 91.4 µM |  | 54.1 µM |  | 63.6 µM |  | 14.7 µM |  | 55.9 µM |  | 95.8 µM |  | 86.6 µM |  | > 100 µM |  | 73.1 µM |
| N#CC1C[C@@H]2CC3(CCC2CN1C(=O)c1ccccc1)OCCO3 (stereo partly specified) |  | > 100 µM |  | > 100 µM |  | > 100 µM |  | > 21.6 µM |  | > 100 µM | > 100 µM | > 100 µM | > 100 µM | > 100 µM |  | > 100 µM |  | > 100 µM |  | > 100 µM |
| C[C@@H](N)COc1ccc(-c2cnc3ccc(N[C@H](C)c4cccc(F)c4)nn23)cc1 | 0.0715 µM | 1.8 µM | 5.15 µM | 20.6 µM | 1.33 µM | 2.62 µM | 1.99 µM | 4.48 µM | 2.12 µM | 4.66 µM | 1.61 µM | 3.82 µM | 2.43 µM | 7.12 µM | 2.01 µM | 4.97 µM | 1.85 µM | 6.38 µM | 2.02 µM | 10.4 µM |
| CS(=O)(=O)N1CCC(n2c(=O)c(Oc3ccc(F)cc3F)cc3cnc(NC4CCOCC4)nc32)CC1 | > 25 µM | > 25 µM | > 25 µM | > 25 µM | > 25 µM | > 25 µM | > 25 µM | > 25 µM | > 25 µM | > 25 µM | > 11.6 µM | > 25 µM | > 25 µM | > 25 µM | > 25 µM | > 25 µM | > 25 µM | > 25 µM | > 25 µM | > 25 µM |
| COc1ccc(-c2cc(/C=C3\C(=O)Nc4cc(Cl)ccc43)[nH]n2)cc1 | 2.44 µM | 14.1 µM | 1.78 µM | 6.96 µM | 6.23 µM | > 100 µM | 4.35 µM | > 100 µM | 2.59 µM | 8.48 µM | 2.9 µM | 35 µM | 2.79 µM | 17.5 µM | 8.72 µM | 68.7 µM | 5.84 µM | > 100 µM | 6.69 µM | > 100 µM |
| N#Cc1c(NCc2ccccc2)nc(NCc2ccccc2)c(C#N)c1-c1ccc(Cl)cc1 | > 50 µM and 19.7 µM | > 50 µM and 58.5 µM | > 50 µM and 34.7 µM | > 100 µM | > 100 µM | > 100 µM |  | > 50 µM and 30.4 µM | > 50 µM and 34.4 µM | > 100 µM | > 50 µM and 37.8 µM | > 50 µM and 86.6 µM | > 50 µM and 96.6 µM | > 100 µM | > 100 µM | > 100 µM | > 50 µM and 25.4 µM | > 50 µM and 80 µM | > 50 µM and 36.2 µM | > 100 µM |
| NC(=O)c1cccc2c(N[C@H](CN3CCC3)c3ccc(Cl)c(C(F)(F)F)c3)ncnc12 | 1.35 µM | 6.58 µM | 0.0506 µM | 0.918 µM | 0.399 µM | 1.85 µM | 1.96 µM | 9.74 µM | 3.3 µM | 16.2 µM | 0.191 µM | 2.65 µM | 2.52 µM | 14.4 µM | 1.17 µM | 2.88 µM | 1.09 µM | 12.9 µM | 2.11 µM | 13.9 µM |
| O=C(O)CCCCn1ccc(=O)[nH]c1=O |  | > 100 µM |  | > 100 µM |  | > 100 µM |  | > 100 µM |  | > 100 µM |  | > 100 µM |  | > 100 µM |  | > 100 µM |  | > 100 µM |  | > 100 µM |
| Oc1c(C(Nc2ccccn2)c2cccc(Oc3ccccc3)c2)ccc2cccnc12 (stereo unspecified) | 0.508 µM | > 100 µM | 0.433 µM | 11.4 µM | 0.806 µM | 19.7 µM | 1.68 µM | 21 µM | 0.56 µM | 13.4 µM | 0.74 µM | > 100 µM | 0.416 µM | > 100 µM | 1.84 µM | 32.6 µM | 0.518 µM | 14.3 µM | 0.591 µM | 20.9 µM |
| CC1CCCC(C(=O)CC2CC(=O)NC(=O)C2)C1=O (stereo unspecified) |  | > 100 µM |  | > 100 µM |  | > 100 µM |  | > 100 µM |  | > 100 µM |  | > 100 µM |  | > 100 µM |  | > 100 µM |  | > 100 µM |  | > 100 µM |
| O=C(CCCn1c2c(sc3ccccc32)c(=O)n2nnc(-c3ccccc3)c12)NCCc1cnc[nH]1 | 0.356 µM | 5.61 µM | 1.95 µM | 3.51 µM | 1.88 µM | 3.58 µM | 2.37 µM | 4.98 µM | 2.01 µM | 5.41 µM | 0.783 µM | 2.19 µM | 0.972 µM | > 24.4 µM | 1.26 µM | 3.41 µM | 1.8 µM | 4.35 µM | < 0.0105 µM | 2.01 µM |
| ClCCCSSCCCCl |  | > 25.8 µM |  | > 100 µM |  | > 100 µM |  | > 100 µM |  | 97.1 µM |  | 64.9 µM |  | > 78 µM |  | > 88.2 µM |  | > 100 µM |  | > 95.1 µM |
| CCn1c(-c2nonc2N)nc2c(C#CC(C)(C)O)ncc(OC3CCNCC3)c21 | 9.64 µM | > 21.3 µM | 1.42 µM | > 25 µM | > 25 µM | > 25 µM | 8.01 µM | 19.4 µM | 5.38 µM | 17.3 µM | 2.11 µM | > 25 µM | > 25 µM | > 25 µM | 7.08 µM | > 25 µM | 16.6 µM | > 25 µM | 9.21 µM | > 25 µM |
| COc1cc2c(NCCCCCO)ncnc2c(OC)c1OC |  | > 100 µM |  | > 100 µM |  | > 100 µM |  | > 100 µM |  | > 100 µM |  | > 100 µM |  | > 100 µM |  | > 100 µM |  | > 100 µM |  | > 100 µM |
| COC(=O)Oc1nn(C(=O)OC)c(=O)c2ccccc12 |  | > 100 µM |  | > 100 µM |  | > 100 µM |  | > 100 µM |  | > 100 µM |  | > 100 µM |  | > 100 µM |  | > 100 µM |  | > 100 µM |  | > 100 µM |
